According to paper PMC7707621, “Oxidized Juncuenin B Analogues with Increased Antiproliferative Activity on Human Adherent Cell Lines: Semisynthesis and Biological Evaluation” (Journal of Natural Products, 2020):

Legend:
[1] = tested on: MCF-7 cells; test: MTT antiproliferative assay on MCF-7; type: cell-based, human; conditions: for inhibition at 10 µM / IC50 / inhibition at 30 µM: Homo sapiens; for inhibition at 10 µM: MCF7, 10 μM; for inhibition at 10 µM / inhibition at 30 µM: read-out: Growth inhibition (% ± SEM), MCF-7; for IC50: MCF7, MTT, 0.1–30 μM, 72 h, mean ± SEM, read-out: calculated IC50 values, MCF-7; for inhibition at 30 µM: MCF7, 30 μM
Experimental: (§1) The antiproliferative assays of the products were carried out by a standard MTT method on human breast (MCF-7, T47D), cervical (HeLa, SiHa, C33A), and ovarian (A2780) cancer cells, and NIH/3T3 mouse embryonic fibroblast cell lines. In the first step, the diastereomeric and racemic mixtures 1–11 and the starting compound, juncuenin B, were tested to obtain information about their antiproliferative activity.
(§2) The antiproliferative activity and tumor selectivity of the compounds were measured by standard MTT assays. Tumor cell lines MCF-7, T47D, HeLa, A2780, and noncancerous NIH/3T3 were provided by European Collection of Authenticated Cell Cultures (ECACC, Salisbury, UK); cell lines SiHa and C33A by LGC Standards GmbH (Wesel, Germany). All chemicals and materials used for the antiproliferative assays were purchased from Sigma Aldrich Ltd. (Budapest, Hungary).
(§3) Growth-inhibition properties of racemates and pure enantiomer compounds were determined by standard MTT assays on six human malignant gynecological cell lines (MCF-7, T47D, HeLa, SiHa, C33A, A2780). To investigate tumor selectivity, the MTT assay was repeated on mouse embryonic fibroblast cells (NIH/3T3) under the same conditions. All cell lines were maintained in minimal essential medium (MEM) supplemented with 10% fetal bovine serum, 1% nonessential amino acids, and 1% penicillin–streptomycin–amphotericin B mixture, and were stored in humidified air containing 5% CO2 at 37 °C. All cell types were seeded into 96–well plates at a density of 5000 with the exception of C33a, which was seeded at a density of 10 000 and treated by increasing concentrations (0.1–30 μM) of the compounds for 72 h under cell culturing conditions. After the incubation, 5 mg/mL MTT [3-(4,5-dimethylthiazol-2-yl)-2,5-diphenyltetrazolium bromide] solution was added to samples for 4 h and precipitated blue formazan crystals were dissolved in DMSO. Absorbance values of the samples were measured at 545 nm using a microplate reader (Stat Fax-2100, Awareness Technologies Inc., Palm City, FL, USA) and untreated cells were used as control. Normalized sigmoidal dose–response curves were fitted to the determined data and the IC50 values were calculated by GraphPad Prism 5.01 (GraphPad Software, San Diego, CA, USA). Cisplatin (Ebewe Pharma GmbH, Unterach, Austria) was used as a reference agent in the same concentration range.

[2] = tested on: T47D cells; test: MTT antiproliferative assay on T47D; type: cell-based, human; conditions: for inhibition at 10 µM / IC50 / inhibition at 30 µM: Homo sapiens, T47D; for inhibition at 10 µM / inhibition at 30 µM: read-out: Growth inhibition (% ± SEM), T47d; for IC50: MTT, 0.1–30 μM, 72 h, mean ± SEM, read-out: calculated IC50 values, T47D
Experimental: as §1, §2, §3

[3] = tested on: HeLa cells; test: MTT antiproliferative assay on HeLa; type: cell-based, human; conditions: for inhibition at 10 µM / IC50 / inhibition at 30 µM: Homo sapiens, HeLa; for inhibition at 10 µM / inhibition at 30 µM: read-out: Growth inhibition (% ± SEM), HeLa; for IC50: MTT, 0.1–30 μM, 72 h, mean ± SEM, read-out: calculated IC50 values, HeLa
Experimental: as §1, §2, §3

[4] = tested on: SiHa cells; test: MTT antiproliferative assay on SiHa; type: cell-based, human; conditions: for inhibition at 10 µM / IC50 / inhibition at 30 µM: Homo sapiens, SiHa; for inhibition at 10 µM / inhibition at 30 µM: read-out: Growth inhibition (% ± SEM), SiHa; for IC50: MTT, 0.1–30 μM, 72 h, mean ± SEM, read-out: calculated IC50 values, SiHa
Experimental: as §1, §2, §3

[5] = tested on: C33A cells; test: MTT antiproliferative assay on C33A; type: cell-based, human; conditions: for IC50 / inhibition at 10 µM / inhibition at 30 µM: Homo sapiens, C-33-A; for IC50: MTT, 0.1–30 μM, 72 h, mean ± SEM, read-out: calculated IC50 values, C33A; for inhibition at 10 µM / inhibition at 30 µM: read-out: Growth inhibition (% ± SEM), C33a
Experimental: as §1, §2, §3

[6] = tested on: A2780 cells; test: MTT antiproliferative assay on A2780; type: cell-based, human; conditions: for IC50 / inhibition at 10 µM / inhibition at 30 µM: Homo sapiens; for IC50: A2780, MTT, 0.1–30 μM, 72 h, mean ± SEM, read-out: calculated IC50 values, A2780; for inhibition at 10 µM: A2780, 10 μM; for inhibition at 10 µM / inhibition at 30 µM: read-out: Growth inhibition (% ± SEM), A2780; for inhibition at 30 µM: A2780, 30 μM
Experimental: as §1, §2, §3

[7] = tested on: NIH/3T3 mouse embryonic fibroblast cells; test: MTT assay for tumor selectivity on NIH/3T3; type: cell-based; conditions: Mus musculus, NIH3T3; for IC50: MTT, 0.1–30 μM, 72 h, mean ± SEM, read-out: calculated IC50 values, NIH/3T3; for inhibition at 10 µM / inhibition at 30 µM: read-out: Growth inhibition (% ± SEM), NIH
Experimental: as §1, §2, §3

Compound | inhibition at 10 µM [1] [%] | IC50 [1] [µM] | inhibition at 10 µM ([2]; 10 μM) [%] | IC50 [2] [µM] | inhibition at 10 µM ([3]; 10 μM) [%] | IC50 [3] [µM] | inhibition at 10 µM ([4]; 10 μM) [%] | IC50 [4] [µM] | IC50 [6] [µM] | IC50 [7] [µM] | inhibition at 30 µM [1] [%] | inhibition at 30 µM ([2]; 30 μM) [%] | inhibition at 30 µM ([3]; 30 μM) [%] | inhibition at 30 µM ([4]; 30 μM) [%] | inhibition at 10 µM ([5]; 10 μM) [%] | inhibition at 30 µM ([5]; 30 μM) [%] | inhibition at 10 µM [6] [%] | inhibition at 30 µM [6] [%] | inhibition at 10 µM [7] [%] | inhibition at 30 µM [7] [%] | also measured
C=CC1=C(C)C(=O)C=C2C3=C(CCC21OCC)C(C)(OCC)C(=O)C=C3 (single isomer, unassigned) [Compound 6a] | 19.6 ± 1.7 | > 30 | < 10 | 22.9 ± 1.6 | < 10 | 25.9 ± 0.3 | < 10 | 29.7 ± 0.2 | 11.2 ± 0.3 | 24.5 ± 1.9 | – | – | – | – | – | – | – | – | – | – | Growth inhibition (% ± SEM), MCF-7 ([1]; 30 μM): 45.64±0.26%; Growth inhibition (% ± SEM), T47d ([2]; 30 μM): 63.48±0.80%; Growth inhibition (% ± SEM), HeLa ([3]; 30 μM): 67.85±1.23%; Growth inhibition (% ± SEM), SiHa ([4]; 30 μM): 68.74±1.56%; Growth inhibition (% ± SEM), C33a ([5]; 10 μM): 21.08±1.92%; Growth inhibition (% ± SEM), C33a ([5]; 30 μM): 93.17±0.50%; IC50 [5]: 14.1 ± 0.2 µM; Growth inhibition (% ± SEM), A2780 ([6]; 10 μM): 43.71±2.91%; Growth inhibition (% ± SEM), A2780 ([6]; 30 μM): 93.85±0.75%
C=CC1=C(C)C(=O)C=C2C3=C(CCC21OCC)C(C)(OCC)C(=O)C=C3 (single isomer, unassigned) [Compound 6b] | – | – | – | – | – | – | – | – | – | – | – | – | – | – | – | – | – | – | – | – | Growth inhibition (% ± SEM), MCF-7 ([1]; 10 μM): 14.17±2.25%; Growth inhibition (% ± SEM), MCF-7 ([1]; 30 μM): 21.81±2.36%; Growth inhibition (% ± SEM), T47d ([2]; 10 μM): < 10%; Growth inhibition (% ± SEM), T47d ([2]; 30 μM): < 10%; Growth inhibition (% ± SEM), HeLa ([3]; 10 μM): < 10%; Growth inhibition (% ± SEM), HeLa ([3]; 30 μM): < 10%; Growth inhibition (% ± SEM), SiHa ([4]; 10 μM): < 10%; Growth inhibition (% ± SEM), SiHa ([4]; 30 μM): < 10%; Growth inhibition (% ± SEM), C33a ([5]; 10 μM): < 10%; Growth inhibition (% ± SEM), C33a ([5]; 30 μM): < 10%; Growth inhibition (% ± SEM), A2780 ([6]; 10 μM): < 10%; Growth inhibition (% ± SEM), A2780 ([6]; 30 μM): < 10%
C=CC1=C(C)C(=O)C=C2C3=C(CCC21OC)C(C)(OC)C(=O)C=C3 (centres unmarked) [1a–1d, 2,6-dioxo-1,8a-dimethoxy-1,7-dimethyl-8-vinyl-9,10-dihydrophenanthrenes] | 28.7 ± 1.81 | 11.6 | 14.6 ± 4.44 | – | 12.7 ± 1.94 | – | 18.1 ± 3.53 | 20 | – | 17.7 ± 0.7 | 67.1 ± 1.9 | 76 ± 2.1 | 86.7 ± 1.22 | 77.9 ± 0.78 | 74.3 ± 0.8 | 94.97 ± 0.12 | 67.1 ± 1.37 | 94.93 ± 0.94 | – | – | –
C=CC1=C(C)C(=O)C=C2C3=C(CC[C@@]21OC)[C@@](C)(OC)C(=O)C=C3 [Compound 1a, 2,6-dioxo-1,8a-dimethoxy-1,7-dimethyl-8-vinyl-9,10-dihydrophenanthrenes] | < 10 | > 30 | 14.1 ± 1.87 | > 30 | < 10 | > 30 | < 10 | > 30 | 13.3 ± 1.5 | > 30 | 33.1 ± 1.15 | 32.5 ± 1.96 | 47.8 ± 3.28 | < 10 | 19.5 ± 2.08 | 87.97 ± 0.34 | 25.1 ± 1.6 | 87.7 ± 1.1 | < 10 | 32.1 ± 1.88 | –
C=CC1=C(C)C(=O)C=C2C3=C(CC[C@]21OC)[C@@](C)(OC)C(=O)C=C3 [Compound 1b, 2,6-dioxo-1,8a-dimethoxy-1,7-dimethyl-8-vinyl-9,10-dihydrophenanthrenes] | 14.2 ± 3.54 | > 30 | 13.6 ± 1.33 | > 30 | 16.3 ± 2.68 | > 30 | < 10 | > 30 | 9 ± 1 | – | 31.9 ± 1.28 | 43.8 ± 1.31 | 42.6 ± 2.07 | 27.7 ± 1.96 | 46 ± 2.01 | 95.12 ± 0.44 | 52.2 ± 1.02 | 96.61 ± 0.23 | < 10 | 41.9 ± 1.35 | IC50 [5]: 10.2 ± 1.7 µM
C=CC1=C(C)C(=O)C=C2C3=C(CC[C@@]21OC)[C@](C)(OC)C(=O)C=C3 [Compound 1c, 2,6-dioxo-1,8a-dimethoxy-1,7-dimethyl-8-vinyl-9,10-dihydrophenanthrenes] | 10.2 ± 4.97 | > 30 | 36.4 ± 2.76 | 12.5 ± 0.9 | 28.3 ± 1.66 | > 30 | < 10 | 28.1 ± 0.1 | – | – | 28.1 ± 1.14 | 84.5 ± 1.63 | 36.1 ± 0.87 | 57.5 ± 2.33 | 85.7 ± 1.16 | 96.31 ± 0.17 | 68.5 ± 0.75 | 98.88 ± 0.1 | < 10 | 69.4 ± 1.87 | –
